Consider 22 compounds from US10010547B2 (CASCADIAN THERAPEUTICS, INC., priority 2014, dated 2018).

One test concerns the target Chk-1 kinase (Homo sapiens (Human), UniProt O14757). Description: Chk-1 Kinase Inhibiting Activity (33P-ATP filter assay, CHKtide substrate). The class given is biochemical. The conditions noted are these: against Chk-1 kinase; read-out: IC50. In a few lines: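 Full-length N-terminal GST-tagged human Chk-1 from insect cells, 0.5 nM final, with 20 μM peptide substrate and 33P-ATP in HEPES pH 7.5 buffer with 1% DMSO. Reaction ran 120 minutes at room temperature; incorporated radioactivity captured on P81 filters and counted for IC50.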

The subject of another test is MIA PaCa-2 cells. The experiment in a line: Gemcitabine Combination Cell Assay (Cell Titer Glo). The format is cell-based. The conditions noted are these: for pIC50: Chk1 inhibitor alone, read-out: Chk1 IC50; for pIC50 / 10xLS / 2xLS: MIA PaCa-2 cells, 72 h; for 10xLS: approximate concentration of Chk1 inhibitor that results in a 10-fold reduction in the IC50 of gemcitabine alone; for 2xLS: approximate concentration of Chk1 inhibitor that results in a two-fold reduction in the IC50 of gemcitabine alone. The gist of the method:
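MIA PaCa-2 cells were treated 72 h with half-log dilutions of Chk1 inhibitor (top 3000 nM) and gemcitabine (top 100 nM), alone and in full matrix; viability by CellTiter-Glo luminescence. IC50s from four-parameter fit; Chk1 inhibitor concentrations giving two- and ten-fold lowering of gemcitabine IC50 were estimated.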

pIC50: −log10 of the molar value. Structures can show the parent of a compound that is named as a salt. Where two headings read alike, the source gives them in different places.

Sequence of Chk-1 kinase (O14757 whole entry): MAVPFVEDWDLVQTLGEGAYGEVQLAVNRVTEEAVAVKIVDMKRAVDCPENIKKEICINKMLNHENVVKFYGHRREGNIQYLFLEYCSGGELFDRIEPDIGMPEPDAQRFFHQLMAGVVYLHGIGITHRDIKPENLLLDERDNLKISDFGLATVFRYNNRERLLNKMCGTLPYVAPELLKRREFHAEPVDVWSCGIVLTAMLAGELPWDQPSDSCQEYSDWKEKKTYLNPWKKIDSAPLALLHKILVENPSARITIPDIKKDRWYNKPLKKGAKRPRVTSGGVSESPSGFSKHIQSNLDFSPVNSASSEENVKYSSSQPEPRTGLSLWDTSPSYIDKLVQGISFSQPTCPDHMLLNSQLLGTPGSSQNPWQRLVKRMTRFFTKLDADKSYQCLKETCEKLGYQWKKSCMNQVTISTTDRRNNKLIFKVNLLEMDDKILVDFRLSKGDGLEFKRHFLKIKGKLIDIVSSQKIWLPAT

Consider `COc1cc(C2CCN(C(C)C)CC2)ccc1-c1cc(Nc2cnc(C#N)cn2)n[nH]1` [Example 61, 5-[[5-[4-(1-isopropyl-4-piperidyl)-2-methoxy-phenyl]-1H-pyrazol-3-yl]amino]pyrazine-2-carbonitrile], for which the pIC50 at Chk-1 kinase is 10.00. In the test on MIA PaCa-2 cells (Homo sapiens), the pIC50 is 6.60. Besides, in the test with MIA PaCa-2 cells, the “10xLS” value was determined as 100 nM and the “2xLS” value came out at 2 nM.

`COc1cc(C2CCN(CC(N)=O)CC2)ccc1-c1cc(Nc2cnc(C#N)cn2)n[nH]1` [Example 62, 2-[4-[4-[3-[(5-cyanopyrazin-2-yl)amino]-1H-pyrazol-5-yl]-3-methoxy-phenyl]-1-piperidyl]acetamide]: on Chk-1 kinase, the negative logarithm of the IC50 (pIC50) was 10.08. In the test on MIA PaCa-2 cells (Homo sapiens), the pIC50 was 6.06. Moreover, in the test on MIA PaCa-2 cells, the “10xLS” value is 300 nM and the “2xLS” value is 10 nM.

With `COc1cc(CN(C)C2CCOCC2)ccc1-c1cc(Nc2cnc(C#N)cn2)n[nH]1` [Example 63, 5-[[5-[2-methoxy-4-[[methyl(tetra hydropyran-4-yl)amino]methyl]phenyl]-1H-pyrazol-3-yl]amino]pyrazine-2-carbonitrile], at Chk-1 kinase, the pIC50 was 10.28. Further, the pIC50 with MIA PaCa-2 cells (Homo sapiens) is 6.22. Also, in the test on MIA PaCa-2 cells, the “10xLS” value is 100 nM and the “2xLS” value is less than 3 nM.

As to `COc1cc(C2(F)CCN(C)CC2)ccc1-c1cc(Nc2cnc(C#N)cn2)n[nH]1` [Example 64, 5-[[5-[4-(4-Fluoro-1-methyl-4-piperidyl)-2-methoxy-phenyl]-1H-pyrazol-3-yl]amino]pyrazine-2-carbonitrile hydrochloride], at Chk-1 kinase, the pIC50 was 9.82. For the same compound, the 50% inhibitory concentration (IC50) in the test with MIA PaCa-2 cells (Homo sapiens, MIA PaCa-2, 72 h, read-out: Chk1 IC50 (nM)) was found to be 144 nM. Moreover, in the test with MIA PaCa-2 cells, the “10xLS” value came to 100 nM and the “2xLS” value was 3 nM.

Regarding `COc1cc(C2CN(C)C2)ccc1-c1cc(Nc2cnc(C#N)cn2)n[nH]1` [Example 65, 5-[[5-[2-methoxy-4-(1-methylazetidin-3-yl)phenyl]-1H-pyrazol-3-yl]amino]pyrazine-2-carbonitrile], the results for the pIC50 on Chk-1 kinase and in the test with MIA PaCa-2 cells (Homo sapiens) were 10.66 and 6.84, respectively. Further, the “10xLS” value in the test with MIA PaCa-2 cells is listed as less than 100 nM. In the test with MIA PaCa-2 cells, the “2xLS” value worked out at 3 nM.

For `COc1cc(C2(F)CN(C)C2)ccc1-c1cc(Nc2cnc(C#N)cn2)n[nH]1` [Example 66, 5-[[5-[4-(3-fluoro-1-methyl-azetidin-3-yl)-2-methoxy-phenyl]-1H-pyrazol-3-yl]amino]pyrazine-2-carbonitrile], at Chk-1 kinase, the pIC50 was 9.85. In the test on MIA PaCa-2 cells (Homo sapiens), the negative-log IC50 (pIC50) was 6.95. In the test with MIA PaCa-2 cells, the “10xLS” value stood at 30 nM and the “2xLS” value is less than 3 nM.

For the compound `COc1cc(C2CCN(C)CC2)c(Cl)cc1-c1cc(Nc2cnc(C#N)cn2)n[nH]1` [Example 67, 5-[[5-[5-chloro-2-methoxy-4-(1-methyl-4-piperidyl)phenyl]-1H-pyrazol-3-yl]amino]pyrazine-2-carbonitrile], the pIC50 at Chk-1 kinase was 8.74. Besides, the pIC50 with MIA PaCa-2 cells (Homo sapiens) is 5.88. In the test with MIA PaCa-2 cells, the “10xLS” value worked out at 1000 nM and the “2xLS” value was determined as 100 nM.

For `COc1cc(C2CCNCC2)c(Cl)cc1-c1cc(Nc2cnc(C#N)cn2)n[nH]1` [Example 68, 5-[[5-[5-chloro-2-methoxy-4-(4-piperidyl)phenyl]-1H-pyrazol-3-yl]amino]pyrazine-2-carbonitrile], at Chk-1 kinase, the pIC50 is 8.54. The negative logarithm of the IC50 (pIC50) in the test on MIA PaCa-2 cells (Homo sapiens) was 5.86. Also, in the test on MIA PaCa-2 cells, the “10xLS” value is recorded as 1000 nM and the “2xLS” value was 100 nM.

As to `COc1c(-c2cc(Nc3cnc(C#N)cn3)n[nH]2)ccc(C2CCN(C)CC2)c1Cl` [Example 69, 5-[[5-[3-chloro-2-methoxy-4-(1-methyl-4-piperidyl)phenyl]-1H-pyrazol-3-yl]amino]pyrazine-2-carbonitrile], the pIC50 on Chk-1 kinase is 8.10. Moreover, the pIC50 with MIA PaCa-2 cells (Homo sapiens) was 5.66. Moreover, in the test on MIA PaCa-2 cells, the “10xLS” value worked out at 1000 nM and the “2xLS” value was found to be 100 nM.

`COc1c(-c2cc(Nc3cnc(C#N)cn3)n[nH]2)ccc(C2CCNCC2)c1Cl` [Example 70, 5-[[5-[3-chloro-2-methoxy-4-(4-piperidyl)phenyl]-1H-pyrazol-3-yl]amino]pyrazine-2-carbonitrile]: the negative-log IC50 (pIC50) at Chk-1 kinase is 8.00. For the same compound, the pIC50 in the test on MIA PaCa-2 cells (Homo sapiens) was 5.58. Further, in the test on MIA PaCa-2 cells, the “10xLS” value stood at 3000 nM and the “2xLS” value turned out to be 300 nM.

For the compound `COC(=O)c1cnc(Nc2cc(-c3ccc(C4CCNCC4)cc3OC)[nH]n2)cn1` [Example 71, methyl 5-[[5-[2-methoxy-4-(4-piperidyl)phenyl]-1H-pyrazol-3-yl]amino]pyrazine-2-carboxylate], the pIC50 at Chk-1 kinase is less than 7.00. Also, the pIC50 in the test on MIA PaCa-2 cells (Homo sapiens) was less than 5.52. For the same compound, in the test with MIA PaCa-2 cells, the “10xLS” value was greater than 3000 nM and the “2xLS” value is on record as greater than 3000 nM.

With `COc1cc(CNC2CCOC2)ccc1-c1cc(Nc2cnc(C#N)cn2)n[nH]1` (stereo not shown) [Example 72, 5-[[5-[2-methoxy-4-[(tetrahydrofuran-3-ylamino)methyl]phenyl]-1H-pyrazol-3-yl]amino]pyrazine-2-carbonitrile], the pIC50 on Chk-1 kinase is 9.80. In addition, in the test on MIA PaCa-2 cells (Homo sapiens), the pIC50 is 6.76. For the same compound, in the test on MIA PaCa-2 cells, the “10xLS” value stood at 100 nM and the “2xLS” value amounted to 10 nM.

In the case of `COc1cc(CN(C)C2CCOC2)ccc1-c1cc(Nc2cnc(C#N)cn2)n[nH]1` (stereo not shown) [Example 73, 5-[[5-[2-methoxy-4-[[methyl(tetra hydrofuran-3-yl)amino]methyl]phenyl]-1H-pyrazol-3-yl]amino]pyrazine-2-carbonitrile], the pIC50 at Chk-1 kinase was 9.55. The pIC50 in the test on MIA PaCa-2 cells (Homo sapiens) was 6.45. Also, in the test on MIA PaCa-2 cells, the “10xLS” value worked out at 300 nM and the “2xLS” value was determined as 10 nM.

As for `COc1cc(NCC2CCOCC2)ccc1-c1cc(Nc2cnc(C#N)cn2)n[nH]1` [Example 74, 5-[[5-[2-methoxy-4-(tetrahydropyran-4-ylmethylamino)phenyl]-1H-pyrazol-3-yl]amino]pyrazine-2-carbonitrile], the pIC50 at Chk-1 kinase was 9.46. In the test on MIA PaCa-2 cells (Homo sapiens), the pIC50 was 6.55. In the test on MIA PaCa-2 cells, the “10xLS” value is on record as 100 nM and the “2xLS” value worked out at 3 nM.

For the compound `COc1cc(OCC2CCOCC2)ccc1-c1cc(Nc2cnc(C#N)cn2)n[nH]1` [Example 75, 5-[[5-[2-methoxy-4-(tetrahydropyran-4-ylmethoxy)phenyl]-1H-pyrazol-3-yl]amino]pyrazine-2-carbonitrile], on Chk-1 kinase, the pIC50 was 9.26. Besides, the pIC50 in the test with MIA PaCa-2 cells (Homo sapiens) was less than 5.52. Also, in the test with MIA PaCa-2 cells, the “10xLS” value is reported as greater than 3000 nM and the “2xLS” value is given as greater than 3000 nM.

As for `COc1cc(C2(F)CCNCC2)ccc1-c1cc(Nc2cnc(C#N)cn2)n[nH]1` [Example 76, 5-[[5-[4-(4-fluoro-4-piperidyl)-2-methoxy-phenyl]-1H-pyrazol-3-yl]amino]pyrazine-2-carbonitrile], the negative logarithm of the IC50 (pIC50) on Chk-1 kinase was 9.96. The pIC50 in the test with MIA PaCa-2 cells (Homo sapiens) is 6.32. Also, in the test on MIA PaCa-2 cells, the “10xLS” value was 300 nM and the “2xLS” value was 10 nM.

Regarding `COc1cc(C2(F)CNC2)ccc1-c1cc(Nc2cnc(C#N)cn2)n[nH]1` [Example 77, 5-[[5-[4-(3-fluoroazetidin-3-yl)-2-methoxy-phenyl]-1H-pyrazol-3-yl]amino]pyrazine-2-carbonitrile], the pIC50 at Chk-1 kinase was 9.85; in the test on MIA PaCa-2 cells (Homo sapiens), 6.79. Besides, in the test on MIA PaCa-2 cells, the “10xLS” value is less than 100 nM. The “2xLS” value in the test on MIA PaCa-2 cells is less than 3 nM.

Consider `COc1cc(O[C@@H]2CCN(C)C2)ccc1-c1cc(Nc2cnc(C#N)cn2)n[nH]1` [Example 78, 5-[[5-[2-methoxy-4-[(3R)-1-methylpyrrolidin-3-yl]oxy-phenyl]-1H-pyrazol-3-yl]amino]pyrazine-2-carbonitrile], for which the negative logarithm of the IC50 (pIC50) on Chk-1 kinase was 9.16. In addition, in the test with MIA PaCa-2 cells (Homo sapiens), the pIC50 is 6.87. In the test with MIA PaCa-2 cells, the “10xLS” value is 100 nM and the “2xLS” value was 10 nM.

For `COc1cc(N2CCOCC2)ccc1-c1cc(Nc2cnc(C#N)cn2)n[nH]1` [Example 79, 5-[[5-(2-methoxy-4-morpholino-phenyl)-1H-pyrazol-3-yl]amino]pyrazine-2-carbonitrile], at Chk-1 kinase, the pIC50 is 9.40. In the test with MIA PaCa-2 cells (Homo sapiens), the pIC50 was 6.32. Besides, in the test with MIA PaCa-2 cells, the “10xLS” value was 100 nM and the “2xLS” value stood at 3 nM.

As for `CCN1CCN(c2ccc(-c3cc(Nc4cnc(C#N)cn4)n[nH]3)c(OC)c2)CC1` [Example 80, 5-[[5-[4-(4-ethylpiperazin-1-yl)-2-methoxy-phenyl]-1H-pyrazol-3-yl]amino]pyrazine-2-carbonitrile], the pIC50 at Chk-1 kinase was 9.72. In addition, the pIC50 in the test on MIA PaCa-2 cells (Homo sapiens) was 7.44. In the test with MIA PaCa-2 cells, the “10xLS” value is 10 nM and the “2xLS” value is reported as less than 3 nM.

As for `COc1cc(N2CCN(C(C)C)CC2)ccc1-c1cc(Nc2cnc(C#N)cn2)n[nH]1` [Example 81, 5-[[5-[4-(4-isopropylpiperazin-1-yl)-2-methoxy-phenyl]-1H-pyrazol-3-yl]amino]pyrazine-2-carbonitrile], on Chk-1 kinase, the pIC50 was 9.82. Also, the pIC50 with MIA PaCa-2 cells (Homo sapiens) is 7.44. Besides, in the test with MIA PaCa-2 cells, the “10xLS” value is less than 30 nM and the “2xLS” value is on record as less than 3 nM.

As for `COc1cc(N2CCN[C@H](C)C2)ccc1-c1cc(Nc2cnc(C#N)cn2)n[nH]1` [Example 82, 5-[[5-[2-methoxy-4-[(3R)-3-methylpiperazin-1-yl]phenyl]-1H-pyrazol-3-yl]amino]pyrazine-2-carbonitrile], the pIC50 at Chk-1 kinase was 10.80. For the same compound, in the test with MIA PaCa-2 cells (Homo sapiens), the pIC50 was 7.13. Besides, in the test on MIA PaCa-2 cells, the “10xLS” value is listed as less than 30 nM and the “2xLS” value is recorded as less than 3 nM.

One may read the pIC50 as −log10 of the IC50, conventionally taken in molar units. In general, IC50 refers to the concentration that gives 50% inhibition.
